Experimental data taken from ChEMBL document CHEMBL5321293, “Discovery of ERD-3111 as a Potent and Orally Efficacious Estrogen Receptor PROTAC Degrader with Strong Antitumor Activity” (J Med Chem, 2023).
Active and inactive are the calls of the source. The rule behind the calls is not given here.

What was measured:
Cytochrome P450 3A4 = Cytochrome P450 3A4 (Homo sapiens, UniProt P08684); experiment: Inhibition of CYP3A4 in human liver microsomes using midazolam as substrate preincubated for 5 mins followed by NADPH addition and measured after 10 mins by LC-MS/MS analysis; type: ADME, Microsome
Sequence of Cytochrome P450 3A4 (P08684 whole entry): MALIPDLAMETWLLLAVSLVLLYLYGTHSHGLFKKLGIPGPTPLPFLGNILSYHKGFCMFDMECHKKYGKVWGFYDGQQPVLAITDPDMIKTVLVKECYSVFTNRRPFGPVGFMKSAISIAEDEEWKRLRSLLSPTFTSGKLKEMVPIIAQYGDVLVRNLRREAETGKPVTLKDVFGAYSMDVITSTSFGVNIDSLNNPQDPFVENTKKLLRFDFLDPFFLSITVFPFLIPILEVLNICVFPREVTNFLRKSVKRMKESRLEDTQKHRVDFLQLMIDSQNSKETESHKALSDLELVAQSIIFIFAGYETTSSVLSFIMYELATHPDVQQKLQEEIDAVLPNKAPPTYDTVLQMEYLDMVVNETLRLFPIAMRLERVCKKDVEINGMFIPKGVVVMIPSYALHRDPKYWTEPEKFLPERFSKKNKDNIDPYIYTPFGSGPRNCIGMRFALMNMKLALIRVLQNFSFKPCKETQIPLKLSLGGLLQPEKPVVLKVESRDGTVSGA

[1] = Toxicity in CB17 SCID mouse xenografted with human MCF7 cells harboring ESR1 Y537S mutant assessed as body weight change at 10 mg/kg,po qd for 4 weeks; type: organism-based; conditions: in vivo, 672 h
MCF7 [2] = experiment: Antitumor activity against human MCF7 cells harboring wild type ESR1 xenografted in CB17 SCID mouse assessed as tumor growth inhibition at 30 mg/kg, po qd for 5 weeks and measured 3 weeks post last dose; type: functional; conditions: MCF7, 840 h, read-out: TGI
[3] = Downregulation of ERalpha protein expression in tumor of CB17 SCID mouse xenografted with human MCF7 cells harboring wild type ESR1 at 30 mg/kg, po qd for 3 days and measured after 24 hrs last dose by Western blot analysis relative to control; type: functional; conditions: time 3 day
[4] = Half life in Sprague-Dawley rat at 3 mg/kg, po and measured upto 24 hrs by LC-MS/MS analysis; conditions: in vivo
Cytochrome P450 1A2 = biological target: T1, Cytochrome P450 1A2 (Homo sapiens, UniProt P05177); experiment: Inhibition of CYP1A2 in human liver microsomes preincubated for 5 mins in presence substrate followed by NADPH addition and measured after 10 mins by LC-MS/MS analysis; type: ADME, Microsome
T1 sequence (P05177 whole entry): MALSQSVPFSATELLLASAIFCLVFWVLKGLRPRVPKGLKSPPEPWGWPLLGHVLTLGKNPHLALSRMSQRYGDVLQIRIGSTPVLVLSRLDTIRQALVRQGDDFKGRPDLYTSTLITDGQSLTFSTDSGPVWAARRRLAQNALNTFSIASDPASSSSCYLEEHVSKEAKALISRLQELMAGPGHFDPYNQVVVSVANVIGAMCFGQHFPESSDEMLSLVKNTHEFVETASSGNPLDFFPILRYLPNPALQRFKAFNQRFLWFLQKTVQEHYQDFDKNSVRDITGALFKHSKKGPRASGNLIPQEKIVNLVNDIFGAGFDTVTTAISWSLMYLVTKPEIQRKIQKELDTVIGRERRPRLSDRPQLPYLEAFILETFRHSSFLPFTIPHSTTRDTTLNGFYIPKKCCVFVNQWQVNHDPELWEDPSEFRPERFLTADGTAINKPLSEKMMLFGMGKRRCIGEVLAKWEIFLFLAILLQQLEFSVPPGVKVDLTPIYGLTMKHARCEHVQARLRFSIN

[5] = Volume of distribution at steady state in ICR mouse at 1 mg/kg, iv and measured upto 24 hrs by LC-MS/MS analysis; type: ADME, organism-based; conditions: in vivo, read-out: Vdss
[6] = Downregulation of ERalpha protein expression in tumor of CB17 SCID mouse xenografted with human MCF7 cells harboring ESR1 D538G mutant at 10 mg/kg, po qd for 3 days and measured after 6 hrs last dose by Western blot analysis relative to control; type: functional; conditions: time 3 day
MCF7 [7] = experiment: Antitumor activity against human MCF7 cells harboring ESR1 D538G mutant xenografted in CB17 SCID mouse assessed as tumor growth inhibition at 10 mg/kg, po qd for 4 weeks and measured 1 week post last dose; type: functional, organism-based
[8] = Metabolic stability in rat liver microsomes assessed as half life at 1 uM and measured upto 60 mins in presence of NADPH by LC-MS/MS analysis; type: ADME, Microsome
[9] = Drug concentration in tumor of CB17 SCID mouse xenografted with human MCF7 cells harboring ESR1 Y537S mutant at 30 mg/kg, po qd for 3 days and measured after 6 hrs last dose by LC-MS/MS analysis; type: ADME, organism-based, Neoplasm; conditions: time 3 day, read-out: Ct
[10] = Drug concentration in plasma of CB17 SCID mouse xenografted with human MCF7 cells harboring wild type ESR1 at 30 mg/kg, po qd for 3 days and measured after 3 hrs last dose by LC-MS/MS analysis; type: ADME, organism-based; conditions: time 3 day
[11] = Downregulation of ERalpha protein expression in tumor of CB17 SCID mouse xenografted with human MCF7 cells harboring wild type ESR1 at 10 mg/kg, po qd for 3 days and measured after 24 hrs last dose by Western blot analysis relative to control; type: functional; conditions: time 3 day
[12] = Volume of distribution at steady state in Sprague-Dawley rat at 1 mg/kg, iv and measured upto 24 hrs by LC-MS/MS analysis; conditions: in vivo
MCF7 [13] = experiment: Antitumor activity against human MCF7 cells harboring ESR1 D538G mutant xenografted in CB17 SCID mouse assessed as tumor growth inhibition at 30 mg/kg, po qd for 4 weeks and measured 1 week post last dose; type: functional, organism-based
[14] = Clearance in Beagle dog at 0.5 mg/kg, iv and measured upto 24 hrs by LC-MS/MS analysis; type: ADME, organism-based, Canis lupus familiaris; conditions: in vivo
MCF7 [15] = experiment: Antitumor activity against human MCF7 cells harboring wild type ESR1 xenografted in CB17 SCID mouse assessed as tumor growth inhibition at 10 mg/kg, po qd for 5 weeks; type: functional; conditions: MCF7, 840 h, read-out: TGI
MCF7 [16] = experiment: Antitumor activity against human MCF7 cells harboring ESR1 Y537S mutant xenografted in CB17 SCID mouse assessed as tumor growth inhibition at 30 mg/kg, po qd for 4 weeks and measured 30 days post last dose; type: functional; conditions: MCF7, 672 h, read-out: TGI
[17] = Toxicity in CB17 SCID mouse xenografted with human MCF7 cells harboring wild type ESR1 assessed as body weight change at 30 mg/kg,po qd for 5 weeks; type: organism-based; conditions: in vivo, 840 h
MCF7 [18] = experiment: Antitumor activity against human MCF7 cells harboring ESR1 Y537S mutant xenografted in CB17 SCID mouse assessed as tumor growth inhibition at 30 mg/kg, po qd for 4 weeks; type: functional; conditions: MCF7, 672 h, read-out: TGI
[19] = Downregulation of ERalpha protein expression in tumor of CB17 SCID mouse xenografted with human MCF7 cells harboring wild type ESR1 at 10 mg/kg, po qd for 3 days and measured after 6 hrs last dose by Western blot analysis relative to control; type: functional; conditions: time 3 day
[20] = Clearance in Sprague-Dawley rat at 1 mg/kg, iv and measured upto 24 hrs by LC-MS/MS analysis; conditions: in vivo
[21] = Cmax in Beagle dog at 1 mg/kg, po and measured upto 24 hrs by LC-MS/MS analysis; type: ADME, organism-based, Canis lupus familiaris; parameters: time < 24 hrs, dose 1 mg/kg, route po; conditions: in vivo
MCF7 [22] = experiment: Antitumor activity against human MCF7 cells harboring wild type ESR1 xenografted in CB17 SCID mouse assessed as tumor growth inhibition at 10 mg/kg, po qd for 5 weeks and measured 3 weeks post last dose; type: functional; conditions: MCF7, 840 h, read-out: TGI
[23] = Drug concentration in plasma of CB17 SCID mouse xenografted with human MCF7 cells harboring ESR1 Y537S mutant at 10 mg/kg, po qd for 3 days and measured after 6 hrs last dose by LC-MS/MS analysis; type: ADME, organism-based; conditions: time 3 day

IC50 (Cytochrome P450 3A4): > 10 µM | half-life at 24 h [4]: 4 h | IC50 (Cytochrome P450 1A2): > 10 µM | Vd [5]: 3.2 L/kg | half-life at 1 µM [8]: > 1 h | concentration at 72 h [9]: 3740 ng/mL | concentration at 72 h [10]: 1980 ng/mL | Vd at 24 h [12]: 1.3 L/kg | clearance [14]: 11 mL/min/kg | clearance at 24 h [20]: 7.4 mL/min/kg | Cmax [21]: 87 ng/mL | concentration at 72 h [23]: 502 ng/mL
SMILES: C[C@@H]1Cc2c(ccc3[nH]ncc23)[C@@H](c2c(F)cc(N3CCC4(CCN(C(=O)CN5Cc6cc7c(cc6C5)C(=O)N(C5CCC(=O)NC5=O)C7=O)CC4)CC3)cc2F)N1CC(F)F (stereo not given in full)
Activity [1]: Non-Toxic | inhibition in vivo at 30 mg/kg (MCF7 [2]): 42% | Activity [3]: 73% | Activity [6]: 68% | Activity (MCF7 [7]): Active | Activity [11]: 70% | Activity (MCF7 [13]): Active | inhibition in vivo at 10 mg/kg (MCF7 [15]): 24% | inhibition in vivo at 30 mg/kg (MCF7 [16]): 101% | Activity [17]: Non-Toxic | inhibition in vivo at 30 mg/kg (MCF7 [18]): 86% | Activity [19]: 66% | inhibition in vivo at 10 mg/kg (MCF7 [22]): 13%
